Experimental data: publication doi:10.1101/2021.06.23.449549v1 (biorxiv, 2021)

T1: AtPQT11/CYP86A4 (Arabidopsis thaliana, UniProt Q9LMM1)
T1 sequence (Q9LMM1 1-554): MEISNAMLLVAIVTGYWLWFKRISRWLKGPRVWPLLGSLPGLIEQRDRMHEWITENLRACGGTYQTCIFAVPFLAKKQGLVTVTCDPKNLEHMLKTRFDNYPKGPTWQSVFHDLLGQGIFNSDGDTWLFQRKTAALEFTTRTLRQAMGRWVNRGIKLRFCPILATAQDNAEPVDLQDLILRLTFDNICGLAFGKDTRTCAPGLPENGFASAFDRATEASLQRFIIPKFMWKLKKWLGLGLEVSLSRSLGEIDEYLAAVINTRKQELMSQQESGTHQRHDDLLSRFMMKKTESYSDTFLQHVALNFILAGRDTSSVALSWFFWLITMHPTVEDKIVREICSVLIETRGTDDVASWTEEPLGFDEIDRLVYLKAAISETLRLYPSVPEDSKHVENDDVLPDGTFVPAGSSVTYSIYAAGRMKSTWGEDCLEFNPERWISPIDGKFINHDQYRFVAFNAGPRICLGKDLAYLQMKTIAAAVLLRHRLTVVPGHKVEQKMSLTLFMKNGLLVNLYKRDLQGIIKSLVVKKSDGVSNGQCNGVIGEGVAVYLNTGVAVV

B1: AtPQT11/CYP86A4 (Arabidopsis thaliana) (protein)
chain: T1 sequence (Q9LMM1 1-554)

Experiments:
AtPQT11/CYP86A4 = biological target: T1, AtPQT11/CYP86A4; assay type: biochemical; conditions: 2 mM NADPH in excess; 25 mM phosphate pH 7.0; 27 °C; N-demethylation
purified protein = substrate: NC(=O)C1=CN([C@@H]2O[C@H](COP(=O)(O)OP(=O)(O)OC[C@H]3O[C@@H](n4cnc5c(N)ncnc54)[C@H](OP(=O)(O)O)[C@@H]3O)[C@@H](O)[C@H]2O)C=CC1; experiment: purified protein; assay type: biochemical, Arabidopsis thaliana; conditions: pH 7.0; 27.0 °C; varied: cofactor

Molecule	Km (AtPQT11/CYP86A4) [µM]	Km (purified protein)
C[n+]1ccc(-c2cc[n+](C)cc2)cc1 [paraquat, 1,1’-dimethyl-4,4’-bipyridynium dichloride]	1.34	
B1		1155 (±214.9) μM
